Measured values as given in ChEMBL document CHEMBL1140820, “beta-N-Biaryl ether sulfonamide hydroxamates as potent gelatinase inhibitors: part 2. Optimization of alpha-amino substituents” (Bioorg Med Chem Lett, 2008).

Assays:
[1] = target: 72 kDa type IV collagenase (Homo sapiens, UniProt P08253); experiment: Inhibition of MMP2
[2] = target: Matrix metalloproteinase-9 (Homo sapiens, UniProt P14780); experiment: Inhibition of MMP9
[3] = Selectivity for MMP9 over MMP2
[4] = Aqueous solubility at pH 2.0; type: physicochemical
Rattus norvegicus = experiment: Reduction of ischemia induced brain edema in Sprague-Dawley rat tMCAo model at 2 mg/kg, iv after 3 hrs; type: functional; parameters: scale not given: the % may be the effect or the level left
[5] = Cmax in rat at 0.5 mg/kg, iv; type: ADME, organism-based; parameters: dose 0.5 mg/kg, route intravenous; settings: in vivo
[6] = Apparent elimination half life in rat at 0.5 mg/kg, iv; type: ADME, organism-based; parameters: dose 0.5 mg/kg, route intravenous; settings: in vivo, read-out: beta t1/2 (converted)
[7] = AUC in rat at 0.5 mg/kg, iv; type: ADME, organism-based; parameters: dose 0.5 mg/kg, route intravenous; settings: plasma
[8] = Volume of distribution at steady state in rat at 0.5 mg/kg, iv; type: ADME, organism-based; parameters: dose 0.5 mg/kg, route intravenous; settings: in vivo, read-out: Vdss
[9] = Clearance in rat at 0.5 mg/kg, iv; type: ADME, organism-based; parameters: dose 0.5 mg/kg, route intravenous; settings: in vivo
[10] = Metabolic stability in human liver microsomes assessed as half life […]; type: ADME, Microsome
[11] = Metabolic stability in rat liver microsomes assessed as half life […]; type: ADME, Microsome
[12] = Protein binding in rat at 0.5 mg/kg, iv; type: ADME, organism-based; parameters: dose 0.5 mg/kg, route intravenous; settings: plasma, read-out: PPB (converted)
[13] = Aqueous solubility at pH 7.0; type: physicochemical
Interstitial collagenase = target: T1, Interstitial collagenase (Homo sapiens, UniProt P03956); experiment: Inhibition of MMP1
T1 sequence (P03956 whole entry): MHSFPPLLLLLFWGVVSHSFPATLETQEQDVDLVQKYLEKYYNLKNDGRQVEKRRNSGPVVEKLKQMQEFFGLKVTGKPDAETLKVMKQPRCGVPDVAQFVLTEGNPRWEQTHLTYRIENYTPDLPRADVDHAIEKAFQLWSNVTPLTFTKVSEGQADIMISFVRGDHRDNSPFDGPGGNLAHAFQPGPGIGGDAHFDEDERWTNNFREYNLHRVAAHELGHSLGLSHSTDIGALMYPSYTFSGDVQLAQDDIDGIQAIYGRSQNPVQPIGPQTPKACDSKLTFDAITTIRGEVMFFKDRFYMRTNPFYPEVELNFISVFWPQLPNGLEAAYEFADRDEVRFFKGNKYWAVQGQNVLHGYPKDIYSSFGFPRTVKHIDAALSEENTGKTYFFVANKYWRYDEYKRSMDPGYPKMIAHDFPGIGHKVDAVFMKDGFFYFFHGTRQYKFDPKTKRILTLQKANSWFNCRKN

Collagenase 3 = Collagenase 3 (Homo sapiens, UniProt P45452); experiment: Inhibition of MMP13

Sequence of 72 kDa type IV collagenase (P08253 whole entry): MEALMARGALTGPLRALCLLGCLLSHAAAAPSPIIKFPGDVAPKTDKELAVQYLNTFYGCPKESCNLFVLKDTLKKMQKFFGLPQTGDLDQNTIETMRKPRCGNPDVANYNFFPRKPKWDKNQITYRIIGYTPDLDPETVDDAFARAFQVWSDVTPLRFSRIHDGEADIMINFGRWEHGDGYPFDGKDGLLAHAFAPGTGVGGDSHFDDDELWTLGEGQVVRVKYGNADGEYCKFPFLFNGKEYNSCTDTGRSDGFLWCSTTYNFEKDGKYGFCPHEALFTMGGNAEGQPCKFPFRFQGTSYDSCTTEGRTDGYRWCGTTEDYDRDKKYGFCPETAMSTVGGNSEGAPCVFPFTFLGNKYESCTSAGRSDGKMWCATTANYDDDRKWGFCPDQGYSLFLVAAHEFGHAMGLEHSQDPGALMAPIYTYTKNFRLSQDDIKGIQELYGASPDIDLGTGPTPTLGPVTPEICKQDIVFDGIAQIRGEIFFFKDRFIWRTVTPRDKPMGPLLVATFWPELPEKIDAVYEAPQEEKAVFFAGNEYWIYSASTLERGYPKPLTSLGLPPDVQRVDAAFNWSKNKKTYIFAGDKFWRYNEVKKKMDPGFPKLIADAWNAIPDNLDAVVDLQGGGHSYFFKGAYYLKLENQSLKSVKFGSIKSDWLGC
Sequence of Matrix metalloproteinase-9 (P14780 whole entry): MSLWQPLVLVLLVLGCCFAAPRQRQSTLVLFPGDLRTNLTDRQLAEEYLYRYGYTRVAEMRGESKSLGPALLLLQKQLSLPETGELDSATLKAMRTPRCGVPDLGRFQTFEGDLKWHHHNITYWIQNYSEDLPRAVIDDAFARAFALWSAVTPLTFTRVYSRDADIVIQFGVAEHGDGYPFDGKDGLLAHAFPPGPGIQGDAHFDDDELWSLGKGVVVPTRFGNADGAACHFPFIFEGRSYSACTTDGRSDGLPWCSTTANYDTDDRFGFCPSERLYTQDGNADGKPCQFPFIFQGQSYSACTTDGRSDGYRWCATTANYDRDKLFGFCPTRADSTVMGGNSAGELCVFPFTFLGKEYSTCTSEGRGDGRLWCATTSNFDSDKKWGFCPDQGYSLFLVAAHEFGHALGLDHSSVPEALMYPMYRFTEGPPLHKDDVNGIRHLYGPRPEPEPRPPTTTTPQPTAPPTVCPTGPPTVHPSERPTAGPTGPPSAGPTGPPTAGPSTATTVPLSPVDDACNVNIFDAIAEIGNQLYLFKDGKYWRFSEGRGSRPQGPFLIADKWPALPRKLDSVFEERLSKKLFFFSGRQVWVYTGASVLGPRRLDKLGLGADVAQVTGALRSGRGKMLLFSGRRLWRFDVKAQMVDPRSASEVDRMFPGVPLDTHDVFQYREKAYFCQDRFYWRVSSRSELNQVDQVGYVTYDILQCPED

Compound | IC50 [1] [nM] | IC50 [2] [nM] | Ratio IC50 [3] | further results
CS(=O)(=O)N(C[C@@H](C(=O)NO)N1CCS(=O)(=O)CC1)c1ccc(Oc2ccc(C(F)(F)F)cc2)cc1 | 4.8 | 1.7 | 2.8 | –
Cc1ccc(Oc2ccc(N(C[C@H](Nc3cccc(Cl)c3)C(=O)NO)S(C)(=O)=O)cc2)cc1 | – | 20 | 16.6 | –
CS(=O)(=O)N(C[C@H](O)C(=O)NO)c1ccc(Oc2ccc(Cl)cc2)cc1 | 35 | 4.7 | 7.4 | –
Cc1ccc(Oc2ccc(N(C[C@H](NC3CCCC3)C(=O)NO)S(C)(=O)=O)cc2)cc1 | – | – | 5.9 | –
C[C@@H]1CN([C@@H](CN(c2ccc(Oc3ccc(C(F)(F)F)cc3)cc2)S(C)(=O)=O)C(=O)NO)C[C@H](C)O1 | 5.6 | 1.1 | 5.1 | –
Cc1ccc(Oc2ccc(N(C[C@@H](C(=O)NO)N3C[C@@H](C)O[C@@H](C)C3)S(C)(=O)=O)cc2)cc1 | – | – | 4.1 | –
CS(=O)(=O)N(C[C@@H](C(=O)NO)N1CCOCC1)c1ccc(Oc2ccc(C(F)(F)F)cc2)cc1 | – | – | 3.2 | solubility [4]: > 70 µg/mL; Activity (Rattus norvegicus): 3.3%; Cmax [5]: 860 nM; half-life [6]: 12 min; AUC [7]: 130 ng·h/mL; Vd [8]: 0.99 L/kg; clearance [9]: 65.4 mL/min/kg; half-life [10]: > 120 min; half-life [11]: > 120 min; fraction unbound [12]: 0.26; solubility [13]: > 70 µg/mL
CS(=O)(=O)N(C[C@@H](C(=O)NO)N1CCC(O)CC1)c1ccc(Oc2ccc(C(F)(F)F)cc2)cc1 | 5.7 | 1.9 | 3 | –
Cc1ccc(Oc2ccc(N(C[C@H](NC(C)C)C(=O)NO)S(C)(=O)=O)cc2)cc1 | 4 | 0.52 | 7.7 | Cmax [5]: 2680 nM; half-life [6]: 9.6 min; AUC [7]: 250 ng·h/mL; Vd [8]: 0.49 L/kg; clearance [9]: 35 mL/min/kg; half-life [10]: 49 min; half-life [11]: < 9 min; fraction unbound [12]: 0.16
Cc1ccc(Oc2ccc(N(C[C@H](NCc3ccccc3)C(=O)NO)S(C)(=O)=O)cc2)cc1 | – | – | 28.4 | –
Cc1ccc(Oc2ccc(N(C[C@H](N[C@@H](C)c3ccccc3)C(=O)NO)S(C)(=O)=O)cc2)cc1 | 12 | – | 22.2 | IC50 (Interstitial collagenase): > 10000 nM
Cc1ccc(Oc2ccc(N(C[C@H](Nc3ccc4ccccc4c3)C(=O)NO)S(C)(=O)=O)cc2)cc1 | 1400 | – | 16.6 | –
CS(=O)(=O)N1CCN([C@@H](CN(c2ccc(Oc3ccc(C(F)(F)F)cc3)cc2)S(C)(=O)=O)C(=O)NO)CC1 | 9.9 | 3.2 | 3.1 | –
CS(=O)(=O)N(C[C@@H](C(=O)NO)N1CCOCC1)c1ccc(Oc2ccc(Cl)cc2)cc1 | – | – | 2.8 | –
Cc1ccc(Oc2ccc(N(C[C@@H](NC(C)C)C(=O)NO)S(C)(=O)=O)cc2)cc1 | 178 | 31 | 5.7 | –
Cc1ccc(Oc2ccc(N(C[C@H](N[C@H](C)c3ccccc3)C(=O)NO)S(C)(=O)=O)cc2)cc1 | – | 1.5 | 16 | –
CC(C)N(Cc1ccccc1)[C@@H](CN(c1ccc(Oc2ccc(C(F)(F)F)cc2)cc1)S(C)(=O)=O)C(=O)NO | – | – | 4.1 | –
Cc1ccc(Oc2ccc(N(C[C@H](Nc3ccccc3)C(=O)NO)S(C)(=O)=O)cc2)cc1 | 13 | 0.52 | 25 | –
O=C1NC(=O)C2(CCC(=O)N2c2ccc(Oc3ccc(Cl)cc3)cc2)C(=O)N1 | – | – | – | Ki [1]: 0.4 nM; Ki [2]: 0.7 nM; Ki (Collagenase 3): 1 nM
CS(=O)(=O)N(C[C@@H](C(=O)NO)N1CCC(c2ccccc2)CC1)c1ccc(Oc2ccc(C(F)(F)F)cc2)cc1 | – | – | 2.7 | –
CS(=O)(=O)N(C[C@H](O)C(=O)NO)c1ccc(Oc2ccc(C(F)(F)F)cc2)cc1 | 139 | 14 | 9.9 | IC50 (Interstitial collagenase): > 10000 nM

Compound | IC50 [1] [nM] | IC50 [2] [nM] | Ratio IC50 [3] | further results
CC(C)N[C@@H](CN(c1ccc(Oc2ccc(C(F)(F)F)cc2)cc1)S(C)(=O)=O)C(=O)NO | – | 2.4 | 3.8 | IC50 (Interstitial collagenase): > 10000 nM
CS(=O)(=O)N(C[C@@H](C(=O)NO)N1CCCCC1)c1ccc(Oc2ccc(C(F)(F)F)cc2)cc1 | – | 2.3 | 3.3 | –
Cc1ccc(Oc2ccc(N(C[C@H](Nc3ccc(F)cc3)C(=O)NO)S(C)(=O)=O)cc2)cc1 | – | 1.3 | 49.2 | –
Cc1ccc(Oc2ccc(N(C[C@H](C(=O)NO)N3CCOCC3)S(C)(=O)=O)cc2)cc1 | – | – | 4.5 | –
CC(C)N(C)[C@@H](CN(c1ccc(Oc2ccc(C(F)(F)F)cc2)cc1)S(C)(=O)=O)C(=O)NO | 24 | 8.8 | 2.7 | –
COc1cccc(N[C@@H](CN(c2ccc(Oc3ccc(C)cc3)cc2)S(C)(=O)=O)C(=O)NO)c1 | – | – | 43.5 | IC50 (Interstitial collagenase): > 10000 nM
CNC(=O)C1CCN([C@@H](CN(c2ccc(Oc3ccc(C(F)(F)F)cc3)cc2)S(C)(=O)=O)C(=O)NO)CC1 | 5.5 | 2.5 | 2.2 | –
Cc1ccc(Oc2ccc(N(C[C@@H](C(=O)NO)N3CCOCC3)S(C)(=O)=O)cc2)cc1 | 5.2 | 1.9 | 2.7 | solubility [4]: > 70 µg/mL; Cmax [5]: 3700 nM; half-life [6]: 360 min; AUC [7]: 670 ng·h/mL; Vd [8]: 0.66 L/kg; clearance [9]: 12.8 mL/min/kg; half-life [10]: > 120 min; half-life [11]: 10 min; fraction unbound [12]: 0.42; solubility [13]: > 70 µg/mL
Cc1ccc(Oc2ccc(N(C[C@H](O)C(=O)NO)S(C)(=O)=O)cc2)cc1 | 61 | 7.8 | – | –
Cc1ccc(Oc2ccc(N(C[C@H](NC(=O)C(C)C)C(=O)NO)S(C)(=O)=O)cc2)cc1 | 70 | 5.4 | 13 | –
C[C@@H]1CN([C@@H](CN(c2ccc(Oc3ccc(Cl)cc3)cc2)S(C)(=O)=O)C(=O)NO)C[C@H](C)O1 | 2.5 | 0.46 | 5.4 | –
Cc1ccc(Oc2ccc(N(C[C@H](NCC(C)C)C(=O)NO)S(C)(=O)=O)cc2)cc1 | 11 | 1.3 | 8.8 | IC50 (Interstitial collagenase): > 10000 nM
Cc1ccc(Oc2ccc(N(C[C@H](NCc3cccnc3)C(=O)NO)S(C)(=O)=O)cc2)cc1 | 17 | 2.8 | 6.1 | –
CC(=O)N1CCN([C@@H](CN(c2ccc(Oc3ccc(C(F)(F)F)cc3)cc2)S(C)(=O)=O)C(=O)NO)CC1 | – | – | 1.8 | –
Cc1ccc(Oc2ccc(N(C[C@H](NCc3ccncc3)C(=O)NO)S(C)(=O)=O)cc2)cc1 | – | 1.8 | 5.3 | –
Cc1ccc(Oc2ccc(N(C[C@H](N)C(=O)NO)S(C)(=O)=O)cc2)cc1 | – | – | 5.5 | –
Cc1ccc(Oc2ccc(N(C[C@H](Nc3cccc(F)c3)C(=O)NO)S(C)(=O)=O)cc2)cc1 | – | 0.89 | 59.6 | Cmax [5]: 620 nM; half-life [6]: 36 min; AUC [7]: 130 ng·h/mL; Vd [8]: 2.89 L/kg; clearance [9]: 66.9 mL/min/kg; half-life [10]: < 9 min; half-life [11]: < 9 min; fraction unbound [12]: 0.003
Cc1ccc(Oc2ccc(N(C[C@H](NCc3ccccn3)C(=O)NO)S(C)(=O)=O)cc2)cc1 | – | – | 3.6 | –
CS(=O)(=O)N(C[C@@H](C(=O)NO)N1CCN(c2ccc(Cl)cc2)CC1)c1ccc(Oc2ccc(C(F)(F)F)cc2)cc1 | – | – | 2.7 | –
CC(C)N(CCNC(=O)OCc1ccccc1)[C@@H](CN(c1ccc(Oc2ccc(C(F)(F)F)cc2)cc1)S(C)(=O)=O)C(=O)NO | – | – | 9 | –
Cc1ccc(Oc2ccc(N(C[C@H](NC(C)C)C(=O)O)S(C)(=O)=O)cc2)cc1 | > 10000 | > 10000 | – | IC50 (Interstitial collagenase): > 10000 nM
